Results from PMC11307993 (ACS Omega, 2024).
Values joined by “and” are separate entries in the source; they are usually repeats but may differ in a detail not shown here. Equal entries are not always repeated.

Key:
rat stomach = test: Gastric ulcerogenic activity; format: in vivo; details: oral 10 mg/kg
[1] = cited from earlier work
COX-2 = target: T1, COX-2 (Homo sapiens, UniProt P35354); test: biochemical; format: biochemical; details: for SI (selectivity index): IC50 (COX-1)/IC50 (COX-2); for fold less potent than compound 8o against COX-2: ratio of COX-2 IC50 values
T1 sequence (P35354 18-604): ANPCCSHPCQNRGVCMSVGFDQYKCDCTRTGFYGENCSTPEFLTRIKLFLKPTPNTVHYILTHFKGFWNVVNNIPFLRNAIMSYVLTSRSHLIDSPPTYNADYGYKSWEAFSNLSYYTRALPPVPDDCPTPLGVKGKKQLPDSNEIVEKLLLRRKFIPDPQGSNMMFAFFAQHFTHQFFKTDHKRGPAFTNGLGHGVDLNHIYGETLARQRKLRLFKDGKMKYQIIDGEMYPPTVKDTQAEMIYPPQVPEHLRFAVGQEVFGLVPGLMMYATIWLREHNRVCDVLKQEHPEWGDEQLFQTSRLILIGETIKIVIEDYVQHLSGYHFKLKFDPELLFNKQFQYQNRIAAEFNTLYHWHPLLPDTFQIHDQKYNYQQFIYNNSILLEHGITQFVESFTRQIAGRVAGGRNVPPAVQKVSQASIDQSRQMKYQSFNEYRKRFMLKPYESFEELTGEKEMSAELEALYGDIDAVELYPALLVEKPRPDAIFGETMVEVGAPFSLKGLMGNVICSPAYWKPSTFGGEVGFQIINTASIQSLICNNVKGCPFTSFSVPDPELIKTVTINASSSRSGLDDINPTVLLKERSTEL

5-LOX = details: read-out: 5-LOX (IC50)
[2] = tested on: serum levels of LDH, Tn-I, TNF-α and CK-MB; test: Evaluation of cardiovascular parameters; format: in vivo, rats; details: rat serum, 100 mg/kg oral, 2 weeks
[3] = tested on: carrageenan induced rat paw edema; test: In vivo anti-inflammatory assay, carrageenan-induced paw edema; details: 2 mg/kg oral; for % of edema inhibition 1 h: 1 h after carrageenan injection; for % of edema inhibition 3 h: 3 h after carrageenan injection; for % of edema inhibition 5 h: 5 h after carrageenan injection
[4] = tested on: acetic acid-induced writhing; test: In vivo analgesic assay, acetic acid-induced writhing method; design: species or system Wistar rats; details: for potency: % inhibition of tested compound / % inhibition of reference (celecoxib); for % inhibition (number of writhing) / no. of writhes (mean ± SE): acetic acid-induced writhing
sEH = target: T2, sEH (Homo sapiens, UniProt P34913); test: In vitro sEH inhibition assay; format: biochemical; details: sEH (IC50, nM)
T2 sequence (P34913 1-555): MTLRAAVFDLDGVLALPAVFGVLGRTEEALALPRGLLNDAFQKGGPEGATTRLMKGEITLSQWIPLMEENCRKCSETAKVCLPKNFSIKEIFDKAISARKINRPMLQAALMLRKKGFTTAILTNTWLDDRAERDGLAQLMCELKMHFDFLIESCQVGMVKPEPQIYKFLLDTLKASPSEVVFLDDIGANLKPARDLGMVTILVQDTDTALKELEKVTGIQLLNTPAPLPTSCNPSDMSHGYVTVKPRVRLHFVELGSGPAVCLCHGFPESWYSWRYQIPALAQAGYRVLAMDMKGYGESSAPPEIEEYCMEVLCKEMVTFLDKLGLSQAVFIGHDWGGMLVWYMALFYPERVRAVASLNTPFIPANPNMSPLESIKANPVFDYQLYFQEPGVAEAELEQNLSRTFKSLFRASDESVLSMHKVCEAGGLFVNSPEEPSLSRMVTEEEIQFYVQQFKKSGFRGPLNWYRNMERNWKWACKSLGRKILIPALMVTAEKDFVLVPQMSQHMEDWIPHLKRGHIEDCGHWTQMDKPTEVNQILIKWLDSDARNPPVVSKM

With `COc1ccc2c(c1)c(CC(=O)O)c(C)n2C(=O)c1ccc(Cl)cc1` [indomethacin] the “score: no. of gastric ulcers” value (rat stomach) was 8.5 ± 0.40 and the “score: severity lesions” value (rat stomach) was 12.50 ± 0.70.
For `CC(C)Cc1ccc(C(C)C(=O)O)cc1` (centres unmarked) [ibuprofen], the ulcer index [1] is given as 21.26.
With `N#CC1=C(N)n2c(nnc2-c2cccnc2)NC1c1ccc(Br)cc1` (centres unmarked) [Compound 8l, 5-Amino-7-(4-bromophenyl)-7,8-dihydro-3-(pyridin-3-yl)-[1,2,4]triazolo [4,3-a]pyrimidine-6-carbonitrile] the IC50 (COX-2) was 53.7 µM and the “SI (selectivity index)” value (COX-2) was 4.
With `COc1ccc(C2Nc3nnc(-c4ccncc4)n3C(N)=C2C#N)cc1` (centres unmarked) [Compound 8j, 5-Amino-7,8-dihydro-7-(4-methoxyphenyl)-3-(pyridin-4-yl)-[1,2,4]-triazolo[4,3-a]pyrimidine-6-carbonitrile] the IC50 (COX-2) was 42.7 µM, the “SI (selectivity index)” value (COX-2) was 7 and the “fold less potent than compound 8o against COX-2” value (COX-2) was 4 fold.
In the case of `Cc1ccc(C2Nc3nnc(-c4cccnc4)n3C(N)=C2C#N)cc1` (centres unmarked) [Compound 8n, 5-Amino-7,8-dihydro-3-(pyridin-3-yl)-7-p-tolyl-[1,2,4]triazolo[4,3-a]pyrimidine-6-carbonitrile], the IC50 (COX-2) is reported as 21.9 µM and the “SI (selectivity index)” value (COX-2) is reported as 10.
For `COc1ccc(C2Nc3nnc(-c4cccnc4)n3C(N)=C2C#N)cc1` (centres unmarked) [Compound 8o, 5-Amino-7,8-dihydro-7-(4-methoxyphenyl)-3-(pyridin-3-yl)-[1,2,4] triazolo[4,3-a]pyrimidine-6-carbonitrile], the “CK-MB (IU/L)” value [2] was 17 ± 01 IU/L, the “LDH (IU/L)” value [2] was 1390 ± 50 IU/L and the “troponin-I” value [2] was 107 ± 05 pg/mL. The “% of edema inhibition 1 h” value [3] was 37%, the “% of edema inhibition 3 h” value [3] was 61% and the “% of edema inhibition 5 h” value [3] was 73%. The “score: no. of gastric ulcers” value (rat stomach) was 0, the “score: severity lesions” value (rat stomach) was 0 and the “ulceration in the isolated rat stomach (observation)” value (rat stomach) was “no ulceration”. The potency [4] was 3.5, the “% inhibition (number of writhing)” value [4] was 47% and 47.50% and the “no. of writhes (mean ± SE)” value [4] was 15.00 ± 0.50. For the same compound, the IC50 (5-LOX) was 3.05 µM and the IC50 (sEH) was 2.1 ± 0.07 nM.
With `Cc1ccc(-c2cc(C(F)(F)F)nn2-c2ccc(S(N)(=O)=O)cc2)cc1` [Celecoxib, reference compound] the “CK-MB (IU/L)” value [2] was 96 ± 04 IU/L, the “LDH (IU/L)” value [2] was 2100 ± 90 IU/L and the “troponin-I” value [2] was 340 ± 10 pg/mL. For the same compound, the “% of edema inhibition 1 h” value [3] was 40%, the “% of edema inhibition 3 h” value [3] was 54% and the “% of edema inhibition 5 h” value [3] was 22%. The “score: no. of gastric ulcers” value (rat stomach) was 2.5 ± 0.10, the “score: severity lesions” value (rat stomach) was 5.80 ± 0.20 and the potency [4] was 1.00. The “% inhibition (number of writhing)” value [4] was 13.5%, the “no. of writhes (mean ± SE)” value [4] was 29.00 ± 0.70 and the “% inhibition (number of writhing)” value ([4]; listed as celecoxib) was 13.50%.
With `N#CC1=C(N)n2c(nnc2-c2ccncc2)NC1c1ccccc1` (centres unmarked) [Compound 8f, 5-Amino-7,8-dihydro-7-phenyl-3-(pyridin-4-yl)-[1,2,4]triazolo[4,3-a]pyrimidine-6-carbonitrile] the IC50 (COX-2) was 51.5 µM and the “SI (selectivity index)” value (COX-2) was 6.
With `N#CC1=C(N)n2c(nnc2-c2cccnc2)NC1c1ccc(Cl)cc1` (centres unmarked) [Compound 8m, 5-Amino-7-(4-chlorophenyl)-7,8-dihydro-3-(pyridin-3-yl)-[1,2,4]triazolo [4,3-a]pyrimidine-6-carbonitrile] the IC50 (COX-2) was 11.6 µM, the “SI (selectivity index)” value (COX-2) was 20 and the “CK-MB (IU/L)” value [2] was 20 ± 02 IU/L. The “LDH (IU/L)” value [2] was 1485 ± 60 IU/L, the “troponin-I” value [2] was 128 ± 06 pg/mL and the “% of edema inhibition 1 h” value [3] was 32%. For the same compound, the “% of edema inhibition 3 h” value [3] was 59%, the “% of edema inhibition 5 h” value [3] was 70% and the potency [4] was 3. The “% inhibition (number of writhing)” value [4] was 41%, the “no. of writhes (mean ± SE)” value [4] was 19.00 ± 0.60 and the IC50 (5-LOX) was 2.9 µM and 3.05 µM. The IC50 (sEH) was 2.95 ± 0.08 nM.
With `N#CC1=C(N)n2c(nnc2-c2ccccc2)NC1c1ccccc1` (centres unmarked) [Compound 8a, 5-Amino-7,8-dihydro-3,7-diphenyl-[1,2,4]triazolo[4,3-a]pyrimidine-6-carbonitrile] the IC50 (COX-2) was 21.7 µM and the “SI (selectivity index)” value (COX-2) was 10.
For `N#CC1=C(N)n2c(nnc2-c2cccnc2)NC1c1ccccc1` (centres unmarked) [Compound 8k, 5-Amino-7,8-dihydro-7-phenyl-3-(pyridin-3-yl)-[1,2,4]triazolo[4,3-a]pyrimidine-6-carbonitrile], the IC50 (COX-2) was 37.5 µM, the “SI (selectivity index)” value (COX-2) was 8 and the “fold less potent than compound 8o against COX-2” value (COX-2) was 3.5 fold.
In the case of `Cc1ccc(C2Nc3nnc(-c4ccccc4)n3C(N)=C2C#N)cc1` (centres unmarked) [Compound 8d, 5-Amino-7,8-dihydro-3-phenyl-7-p-tolyl-[1,2,4]triazolo[4,3-a]pyrimidine-6-carbonitrile], the IC50 (COX-2) is reported as 46.9 µM and the “SI (selectivity index)” value (COX-2) is reported as 6.
For `COc1ccc(C2Nc3nnc(-c4ccccc4)n3C(N)=C2C#N)cc1` (centres unmarked) [Compound 8e, 5-Amino-7,8-dihydro-7-(4-methoxyphenyl)-3-phenyl-[1,2,4]triazolo[4,3-a]pyrimidine-6-carbonitrile], the IC50 (COX-2) was 29.7 µM, the “SI (selectivity index)” value (COX-2) was 8 and the “fold less potent than compound 8o against COX-2” value (COX-2) was 2.8 fold.
